Experimental data from PubChem BioAssay (NCI).
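Method: 48-hour compound exposure of cells in 96-well plates, five concentrations, linear interpolation of endpoints. TGI denotes the concentration required for complete inhibition of growth.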

Columns and labels:
Assay in all cases: inhibition of tumour cell growth, NCI panel, 48 h
[1] = tested on: RPMI-8226 leukemia
[2] = tested on: SF-539 CNS
[3] = tested on: M14 melanoma
[4] = tested on: NCI/ADR-RES ovarian
[5] = tested on: SK-OV-3 ovarian
[6] = tested on: A549 NSCLC
[7] = tested on: K-562 leukemia
[8] = tested on: SNB-75 CNS
[9] = tested on: NCI-H23 lung
[10] = tested on: CCRF-CEM leukemia
[11] = tested on: MCF7 breast
[12] = tested on: MDA-N
[13] = tested on: U251 CNS
[14] = tested on: SF-268 CNS
[15] = tested on: HOP-62 NSCLC
[16] = tested on: SNB-19 CNS
[17] = tested on: IGROV1 ovarian
[18] = tested on: NCI-H460 lung
[19] = tested on: BT-549 breast
[20] = tested on: MDA-MB-435
[21] = tested on: SK-MEL-2 melanoma
[22] = tested on: SK-MEL-28 melanoma
[23] = tested on: UACC-62 melanoma
[24] = tested on: MDA-MB-231 breast
[25] = tested on: LOX IMVI melanoma
[26] = tested on: OVCAR-5 ovarian
[27] = tested on: 786-0 renal
[28] = tested on: MOLT-4 leukemia
[29] = tested on: ACHN renal
[30] = tested on: HS 578T breast
[31] = tested on: HCT-15 colon
[32] = tested on: UACC-257 melanoma
[33] = tested on: UO-31 renal
[34] = tested on: SN12C renal
[35] = tested on: COLO 205 colon
[36] = tested on: SR leukemia
[37] = tested on: OVCAR-3 ovarian
[38] = tested on: OVCAR-8 ovarian
[39] = tested on: MALME-3M melanoma
[40] = tested on: T-47D breast
[41] = tested on: HOP-92 NSCLC
[42] = tested on: HL-60(TB) leukemia
[43] = tested on: KM12 colon
[44] = tested on: A498 renal
[45] = tested on: SW-620 colon
[46] = tested on: HCT-116 colon
[47] = tested on: TK-10 renal
[48] = tested on: CAKI-1 renal
[49] = tested on: NCI-H226 lung
[50] = tested on: NCI-H522 lung
[51] = tested on: EKVX NSCLC
[52] = tested on: SF-295 CNS
[53] = tested on: DU-145 prostate
[54] = tested on: OVCAR-4 ovarian
[55] = tested on: HT29 colon
[56] = tested on: PC-3 prostate
[57] = tested on: SK-MEL-5 melanoma
[58] = tested on: RXF 393 renal
[59] = tested on: HCC-2998 colon

In the case of `CCCCCN1C(=O)C(Cc2ccccc2)N=C(c2ccc(O)cc2)c2cc(Cl)ccc21` (stereo not drawn), the TGI [1] is reported as 12.1 µM, the TGI [2] is reported as 38.9 µM and the TGI [3] is reported as 34.4 µM. It also gave a TGI [4] of 25.4 µM, a TGI [5] of 41.1 µM and a TGI [6] of 31.7 µM. For the same molecule, the TGI [7] was 12.3 µM, the TGI [8] was 23.7 µM and the TGI [9] was 17.7 µM. It also gave a TGI [10] greater than 100 µM, a TGI [11] of 24.8 µM and a TGI [12] greater than 40.3 µM. The TGI [13] was 27.2 µM, the TGI [14] was 25.3 µM and the TGI [15] was 52.8 µM. For the same molecule, the TGI [16] was 33.7 µM, the TGI [17] was 23.9 µM and the TGI [18] was 24.3 µM. For the same molecule, the TGI [19] was 33.4 µM, the TGI [20] was 24.4 µM and the TGI [21] was 34.4 µM. The TGI [22] was 29.7 µM, the TGI [23] was 25 µM and the TGI [24] was 35.9 µM. The TGI [25] was 18.5 µM, the TGI [26] was 48.3 µM and the TGI [27] was 27.3 µM. The TGI [28] was 26.3 µM, the TGI [29] was 25.9 µM and the TGI [30] was 32.4 µM. It also gave a TGI [31] of 21.2 µM, a TGI [32] of 23.7 µM and a TGI [33] of 25.3 µM. For the same molecule, the TGI [34] was greater than 39.6 µM, the TGI [35] was 10.1 µM and the TGI [36] was 15.3 µM. For the same molecule, the TGI [37] was 45.1 µM, the TGI [38] was 25.8 µM and the TGI [39] was 23.6 µM. It also gave a TGI [40] of 12.4 µM, a TGI [41] of 25 µM and a TGI [42] greater than 100 µM. The TGI [43] was 30.3 µM, the TGI [44] was greater than 48.4 µM and the TGI [45] was 26.8 µM. It also gave a TGI [46] of 21.5 µM, a TGI [47] of 31.2 µM and a TGI [48] of 35.1 µM. The TGI [49] was 26.3 µM, the TGI [50] was 17.2 µM and the TGI [51] was 25.6 µM. It also gave a TGI [52] of 20.7 µM, a TGI [53] of 30.9 µM and a TGI [54] of 22.1 µM. For the same molecule, the TGI [55] was 25.6 µM and the TGI [56] was 27.3 µM.
Molecule `CCOC(=O)/C(=C\c1c[nH]c2ccccc12)P(=O)(OCC)OCC` has a TGI [1] of 76.8 µM, a TGI [2] of 43.6 µM and a TGI [3] greater than 100 µM. It also gave a TGI [4] greater than 100 µM, a TGI [5] of 90.4 µM and a TGI [6] greater than 100 µM. For the same molecule, the TGI [7] was greater than 100 µM, the TGI [8] was 75.6 µM and the TGI [9] was 71.5 µM. The TGI [10] was 66.9 µM, the TGI [11] was greater than 100 µM and the TGI [12] was greater than 100 µM. For the same molecule, the TGI [13] was greater than 100 µM, the TGI [14] was greater than 100 µM and the TGI [15] was greater than 100 µM. For the same molecule, the TGI [16] was greater than 100 µM, the TGI [17] was greater than 100 µM and the TGI [18] was 61.9 µM. For the same molecule, the TGI [19] was 62.7 µM, the TGI [20] was greater than 100 µM and the TGI [22] was 94.3 µM. For the same molecule, the TGI [23] was greater than 100 µM, the TGI [24] was 68.4 µM and the TGI [25] was 40.3 µM. The TGI [57] was greater than 100 µM, the TGI [26] was 87.9 µM and the TGI [27] was 99.6 µM. It also gave a TGI [28] greater than 100 µM, a TGI [29] greater than 100 µM and a TGI [30] greater than 100 µM. The TGI [31] was 72.6 µM, the TGI [32] was greater than 100 µM and the TGI [58] was greater than 100 µM. The TGI [34] was greater than 100 µM, the TGI [35] was 44.1 µM and the TGI [36] was 61.1 µM. It also gave a TGI [37] of 59.9 µM, a TGI [38] of 53.5 µM and a TGI [39] greater than 100 µM. It also gave a TGI [40] greater than 100 µM, a TGI [41] of 77.1 µM and a TGI [42] of 62 µM. The TGI [43] was greater than 100 µM, the TGI [44] was 76.1 µM and the TGI [45] was greater than 100 µM. For the same molecule, the TGI [46] was greater than 100 µM, the TGI [47] was greater than 100 µM and the TGI [48] was greater than 100 µM. For the same molecule, the TGI [49] was 77.5 µM, the TGI [59] was greater than 100 µM and the TGI [50] was 89.9 µM. For the same molecule, the TGI [51] was greater than 100 µM, the TGI [52] was greater than 100 µM and the TGI [53] was greater than 100 µM. For the same molecule, the TGI [54] was 89.4 µM, the TGI [55] was 77.5 µM and the TGI [56] was 66.6 µM.
